# PMC5581245 (Electrophoresis, 2017)
# Test: Retention of glycopeptides on reversed phase C18 nanoLC-MS
# Assay type: physicochemical
# Conditions: difference between glycoform with and without fucose; RP C18 nanoLC, gradient 3
row,Sequence,RRT difference introduced by fucose (RRT expressed as trx/trGlcNAc form)
1,VVLHPNYSQVDIGLIK [bi-antennary glycoform of VVLHPNYSQVDIGLIK],0.00204
2,VVLHPNYSQVDIGLIK [tetra-antennary glycoform of VVLHPNYSQVDIGLIK],0.00035
3,VVLHPNYSQVDIGLIK [tri-antennary glycoform of VVLHPNYSQVDIGLIK],0.00096
